Values of other authors as cited in patent publication US11857510B2, “Methods and compositions for treating congenital diarrhea disorder” (NAPO PHARMACEUTICALS, INC., priority 2017, dated 2024).

Conditions: human, in vivo

Crofelemer
absorption from the GI tract: little or no absorption
systemic bioavailability: virtually no systemic bioavailability
tolerability: well tolerated
